Experimental data reported in PubChem BioAssay (NCI).
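Method: 48-hour compound exposure of cells in 96-well plates, five concentrations, linear interpolation of endpoints. GI50 is the concentration that inhibits growth by half. TGI denotes the concentration required for complete inhibition of growth.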 Where a SMILES comes first, the peptide text is derived from it. [ ]: non-standard residue; d: D form. NMeY = CN[C@@H](Cc1ccc(O)cc1)C(=O)O; dNMeF = CN[C@H](Cc1ccccc1)C(=O)O; Sar = CNCC(=O)O

Key:
Assay in all cases: NCI-60 cell line screen, 48 h
ACHN renal = test system: ACHN renal
EKVX NSCLC = test system: EKVX NSCLC
A549 NSCLC = test system: A549 NSCLC
OVCAR-4 ovarian = test system: OVCAR-4 ovarian
HOP-92 NSCLC = test system: HOP-92 NSCLC
SNB-19 CNS = test system: SNB-19 CNS
SK-MEL-2 melanoma = test system: SK-MEL-2 melanoma
SK-MEL-5 melanoma = test system: SK-MEL-5 melanoma
SF-295 CNS = test system: SF-295 CNS
HCC-2998 colon = test system: HCC-2998 colon

## COc1cc2nc(N3CCCC3)nc(Nc3ccccc3)c2cc1OC
ACHN renal
  GI50: 1.38 µM
  TGI: 2.67 µM
EKVX NSCLC
  GI50: 1.88 µM
  TGI: 3.53 µM
A549 NSCLC
  GI50: 1.65 µM
  TGI: 4.31 µM
OVCAR-4 ovarian
  GI50: 1.43 µM
  TGI: 2.8 µM
HOP-92 NSCLC
  GI50: 1.39 µM
  TGI: 2.99 µM
SNB-19 CNS
  GI50: 1.65 µM
  TGI: 3.14 µM
SK-MEL-2 melanoma
  GI50: 2.09 µM
  TGI: 4.16 µM
SK-MEL-5 melanoma
  GI50: 1.71 µM
  TGI: 3.12 µM
SF-295 CNS
  GI50: 1.8 µM
  TGI: 3.27 µM
HCC-2998 colon
  GI50: 1.9 µM
  TGI: 3.65 µM

## NCCCC1NC(=O)/C(=C(O)/C=C/C2CCC[C@@H]2CC2SCCS2)C1=O (stereo not given in full)
ACHN renal
  TGI: > 100 µM
EKVX NSCLC
  TGI: > 100 µM
A549 NSCLC
  TGI: > 100 µM
OVCAR-4 ovarian
  TGI: > 100 µM
HOP-92 NSCLC
  TGI: 99.8 µM
SNB-19 CNS
  TGI: > 100 µM
SK-MEL-2 melanoma
  TGI: > 100 µM
SK-MEL-5 melanoma
  TGI: > 100 µM
SF-295 CNS
  TGI: > 100 µM
HCC-2998 colon
  TGI: > 100 µM

## Cc1ccc(C2(O)CC(c3ccc([N+](=O)[O-])o3)=NN2C(=O)COc2ccccc2Cl)cc1 (stereo not given)
ACHN renal
  TGI: 63.2 µM
EKVX NSCLC
  TGI: 28.8 µM
A549 NSCLC
  TGI: > 100 µM
OVCAR-4 ovarian
  TGI: > 100 µM
HOP-92 NSCLC
  TGI: > 95.3 µM
SNB-19 CNS
  TGI: > 100 µM
SK-MEL-2 melanoma
  TGI: 26.4 µM
SK-MEL-5 melanoma
  TGI: 8.54 µM
SF-295 CNS
  TGI: > 100 µM
HCC-2998 colon
  TGI: 38.3 µM

## O=C(O)c1ccc(NCc2nc3cc4ccccc4cc3[nH]2)cc1
ACHN renal
  TGI: > 100 µM
EKVX NSCLC
  TGI: > 100 µM
A549 NSCLC
  TGI: > 100 µM
OVCAR-4 ovarian
  TGI: > 100 µM
HOP-92 NSCLC
  TGI: > 100 µM
SNB-19 CNS
  TGI: > 100 µM
SK-MEL-2 melanoma
  TGI: > 86.3 µM
SK-MEL-5 melanoma
  TGI: > 72.7 µM
SF-295 CNS
  TGI: > 100 µM
HCC-2998 colon
  TGI: > 100 µM

## CC[C@H](C)[C@@H]1NC(=O)[C@H](Cc2ccc(O)cc2)N(C)C(=O)[C@H](Cc2ccccc2)NC(=O)CN(C)C(=O)[C@@H]2CCCN2C(=O)[C@@H](Cc2ccccc2)N(C)C(=O)[C@H](CC(C)C)NC1=O (cyclo(F[NMeY]IL[dNMeF]P[Sar]))
ACHN renal
  GI50: 2.34 µM
  TGI: 11.6 µM
EKVX NSCLC
  GI50: 0.301 µM
  TGI: 6.47 µM
A549 NSCLC
  GI50: 0.301 µM
  TGI: 4.29 µM
OVCAR-4 ovarian
  GI50: 0.306 µM
  TGI: 3.99 µM
HOP-92 NSCLC
  GI50: 0.198 µM
  TGI: 4.83 µM
SNB-19 CNS
  GI50: 0.146 µM
  TGI: 6.92 µM
SK-MEL-2 melanoma
  GI50: 0.327 µM
  TGI: 1.91 µM
SK-MEL-5 melanoma
  GI50: 0.485 µM
  TGI: 1.85 µM
SF-295 CNS
  GI50: 0.428 µM
  TGI: 3.5 µM
HCC-2998 colon
  GI50: 0.39 µM
  TGI: 5.01 µM

## Cc1ccc2c(Nc3cccc(Cl)c3F)ncc(NC(=O)c3csc4c(N)ncnc34)c2c1
ACHN renal
  GI50: > 100 µM
  TGI: > 100 µM
EKVX NSCLC
  GI50: > 100 µM
  TGI: > 100 µM
A549 NSCLC
  GI50: > 73.5 µM
  TGI: > 100 µM
OVCAR-4 ovarian
  GI50: > 100 µM
  TGI: > 100 µM
HOP-92 NSCLC
  GI50: 0.136 µM
  TGI: 1.72 µM
SNB-19 CNS
  GI50: > 100 µM
  TGI: > 100 µM
SK-MEL-2 melanoma
  GI50: 0.0856 µM
  TGI: > 100 µM
SK-MEL-5 melanoma
  GI50: > 100 µM
  TGI: > 100 µM
SF-295 CNS
  GI50: > 100 µM
  TGI: > 100 µM
HCC-2998 colon
  GI50: 0.281 µM
  TGI: > 100 µM

## COc1cc([C@@H]2c3cc4c(cc3[C@@H](NCc3ccccc3)C3COC(=O)[C@@H]32)OCO4)cc(OC)c1O (stereo not given in full)
ACHN renal
  TGI: 5.92 µM
EKVX NSCLC
  TGI: 38.1 µM
A549 NSCLC
  TGI: 15.4 µM
OVCAR-4 ovarian
  TGI: > 75.5 µM
HOP-92 NSCLC
  TGI: 37.9 µM
SNB-19 CNS
  TGI: 42 µM
SK-MEL-2 melanoma
  TGI: 52.2 µM
SK-MEL-5 melanoma
  TGI: 35.8 µM
SF-295 CNS
  TGI: 26.5 µM
HCC-2998 colon
  TGI: 33 µM

## CNNC(=N\S(=O)(=O)c1cc(C(=O)Nc2ccc(Cl)cc2)c(Cl)cc1SCc1ccccc1)/N=C/c1ccc([N+](=O)[O-])s1
ACHN renal
  GI50: > 100 µM
  TGI: > 100 µM
EKVX NSCLC
  GI50: > 54.4 µM
  TGI: > 100 µM
A549 NSCLC
  GI50: 20.5 µM
  TGI: > 100 µM
OVCAR-4 ovarian
  GI50: > 100 µM
  TGI: > 100 µM
HOP-92 NSCLC
  GI50: 4.54 µM
  TGI: 62.2 µM
SNB-19 CNS
  GI50: > 100 µM
  TGI: > 100 µM
SK-MEL-2 melanoma
  GI50: > 100 µM
  TGI: > 100 µM
SK-MEL-5 melanoma
  GI50: 6.57 µM
  TGI: > 45.9 µM
SF-295 CNS
  GI50: > 100 µM
  TGI: > 100 µM
HCC-2998 colon
  GI50: 2.83 µM
  TGI: > 100 µM

## CCN(CC)CCCOc1cc(O)c2c(=O)cc(-c3ccccc3)oc2c1
ACHN renal
  GI50: 6.16 µM
  TGI: 19 µM
EKVX NSCLC
  GI50: 13.2 µM
  TGI: 26.4 µM
A549 NSCLC
  GI50: 5.53 µM
  TGI: 22.5 µM
OVCAR-4 ovarian
  GI50: 5.94 µM
  TGI: 25.1 µM
HOP-92 NSCLC
  GI50: 3.08 µM
  TGI: 16.7 µM
SNB-19 CNS
  GI50: 12.1 µM
  TGI: 24.5 µM
SK-MEL-2 melanoma
  GI50: 10.1 µM
  TGI: 27 µM
SK-MEL-5 melanoma
  GI50: 3.16 µM
  TGI: 11.8 µM
SF-295 CNS
  GI50: 11.9 µM
  TGI: 28.1 µM
HCC-2998 colon
  GI50: 10.1 µM
  TGI: 24.4 µM

## O=C1c2cc3c(cc2[C@@H]2[C@H]1c1ccc([N+](=O)[O-])cc1C(=O)N2CCCCl)OCO3
ACHN renal
  GI50: < 0.01 µM
  TGI: < 0.01 µM
EKVX NSCLC
  GI50: < 0.01 µM
  TGI: > 100 µM
A549 NSCLC
  GI50: < 0.01 µM
  TGI: > 100 µM
OVCAR-4 ovarian
  GI50: 0.151 µM
  TGI: > 100 µM
HOP-92 NSCLC
  GI50: < 0.03 µM
  TGI: > 100 µM
SNB-19 CNS
  GI50: < 0.0139 µM
  TGI: > 100 µM
SK-MEL-2 melanoma
  GI50: 0.0827 µM
  TGI: > 100 µM
SK-MEL-5 melanoma
  GI50: < 0.01 µM
  TGI: < 0.01 µM
SF-295 CNS
  GI50: < 0.01 µM
  TGI: 11.4 µM
HCC-2998 colon
  GI50: 0.0164 µM
  TGI: 0.568 µM

## O=C(O)CCCCCO
ACHN renal
  TGI: > 100 µM
EKVX NSCLC
  TGI: > 100 µM
A549 NSCLC
  TGI: > 100 µM
OVCAR-4 ovarian
  TGI: > 100 µM
HOP-92 NSCLC
  TGI: > 100 µM
SNB-19 CNS
  TGI: > 100 µM
SK-MEL-2 melanoma
  TGI: > 100 µM
SK-MEL-5 melanoma
  TGI: > 100 µM
SF-295 CNS
  TGI: > 100 µM
HCC-2998 colon
  TGI: > 100 µM
